Results from patent US7994185B2, “Benzene sulfonamide thiazole and oxazole compounds” (Glaxo Smith Kline LLC, priority 2008, dated 2011).
Where two headings read alike, the source gives them in different places.

How the values were obtained:
[1] = tested on: Human melanoma cancer cells (SK-MEL-28); assay: Cell growth inhibition assay (CellTiter-Glo), SK-MEL-28; assay type: cell-based
[2] = target: T1, BRAFV600E full-length (amino acids 2-766) (Homo sapiens, UniProt P15056, V600E); assay: B-Raf Accelerated MEK ATPase assay (BRAMA); assay type: biochemical
T1 construct: His6-tagged BRAFV600E full-length (amino acids 2-766); His6; made in house; host or cells: baculovirus expression system (insect cells)
Summary of the method: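 Coupled-enzyme readout: ADP generated by MEK-mediated ATP hydrolysis, uncoupled from ERK phosphorylation, is linked to NADH oxidation through pyruvate kinase and lactate dehydrogenase.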

[3] = tested on: Human colon tumor cells (Colo205); assay: Cell growth inhibition assay (CellTiter-Glo), Colo205; assay type: cell-based
Summary of the method: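 Read-out was CellTiter-Glo luminescence (total ATP as a cell-number surrogate), expressed as % inhibition against DMSO vehicle wells. Before that, cells grown in RPMI/10% FBS were treated for 3 days at 37 °C with ten 1:3-spaced compound concentrations, final DMSO 0.2%.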

[4] = SK-MEL-28, Table 3b, later runs, average for the one or more runs, categorized, read-out: IC50 for SK-MEL-28
[5] = B-Raf pIC50, Table 1b, later runs, average pIC50 for the one or more runs, categorized
[6] = COLO 205, Table 2b, later runs, average for the one or more runs, categorized, read-out: IC50 for Colo205
[7] = SK-MEL-28, 72 h, Table 3a, 3 days incubation, read-out: Activity in SK-MEL-28 Tumor Cells
[8] = B-Raf Activity, Table 1a, highest pIC50 for the one or more runs, categorized
[9] = COLO 205, 72 h, Table 2a, 3 days incubation, read-out: Activity in Colo205 Tumor Cells
[10] = Table 1b, later runs, average pIC50 for the one or more runs, categorized, read-out: B-Raf pIC50 (converted)

T1 sequence (P15056 2-766 V600E): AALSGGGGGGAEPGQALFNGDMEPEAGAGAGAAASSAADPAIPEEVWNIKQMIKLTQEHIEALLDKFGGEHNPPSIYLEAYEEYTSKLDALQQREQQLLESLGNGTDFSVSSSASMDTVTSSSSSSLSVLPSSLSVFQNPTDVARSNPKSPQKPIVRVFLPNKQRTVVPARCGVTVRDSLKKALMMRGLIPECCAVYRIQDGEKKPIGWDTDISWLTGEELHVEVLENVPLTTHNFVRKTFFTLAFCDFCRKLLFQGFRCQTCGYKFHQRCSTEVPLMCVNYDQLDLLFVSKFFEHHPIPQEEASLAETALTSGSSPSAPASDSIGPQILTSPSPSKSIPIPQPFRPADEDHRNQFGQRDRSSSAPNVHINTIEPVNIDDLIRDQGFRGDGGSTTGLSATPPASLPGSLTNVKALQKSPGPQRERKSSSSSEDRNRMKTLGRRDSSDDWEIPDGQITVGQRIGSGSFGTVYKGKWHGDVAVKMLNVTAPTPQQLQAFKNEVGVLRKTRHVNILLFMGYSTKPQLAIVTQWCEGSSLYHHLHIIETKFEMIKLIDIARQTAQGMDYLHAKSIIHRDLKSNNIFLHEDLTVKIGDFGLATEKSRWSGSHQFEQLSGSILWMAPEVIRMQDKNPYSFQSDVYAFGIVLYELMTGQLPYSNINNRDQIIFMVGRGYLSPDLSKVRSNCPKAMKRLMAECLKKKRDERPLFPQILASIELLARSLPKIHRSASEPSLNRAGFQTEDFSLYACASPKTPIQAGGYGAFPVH

Structure (SMILES) | IC50 [1, 4] [µM] | IC50 [2, 5] [µM] | IC50 [3, 6] [µM] | IC50 [1, 7] [µM] | IC50 [2, 8] [µM] | IC50 [3, 9] [µM] | IC50 [2] [µM] | IC50 [2, 10] [µM]
Nc1nccc(-c2sc(C3CCOCC3)nc2-c2cccc(NS(=O)(=O)c3cc(F)ccc3F)c2Cl)n1 [Example 242, N-{3-[5-(2-amino-4-pyrimidinyl)-2-(tetrahydro-2H-pyran-4-yl)-1,3-thiazol-4-yl]-2-chlorophenyl}-2,5-difluorobenzenesulfonamide] | < 0.1 | ≤ 0.00316 | < 0.1 |  |  |  |  | 
Nc1nccc(-c2sc(N3CCOCC3)nc2-c2c(F)ccc(NS(=O)(=O)c3cc(F)ccc3F)c2F)n1 [Example 105, N-{3-[5-(2-Amino-4-pyrimidinyl)-2-(4-morpholinyl)-1,3-thiazol-4-yl]-2,4-difluorophenyl}-2,5-difluorobenzenesulfonamide] | < 0.1 | ≤ 0.00316 | < 0.1 | < 0.1 | < 0.1 | < 0.1 |  | 
CC(C)c1nc(-c2cccc(NS(=O)(=O)c3cc(F)ccc3F)c2F)c(-c2ccnc(NCCCN3CCCC3=O)n2)s1 [Example 185] | < 0.1 | ≤ 0.00316 | < 0.1 | < 0.1 | < 0.1 | < 0.1 |  | 
CC(C)c1nc(-c2ccc(F)c(NS(=O)(=O)c3c(F)cccc3F)c2)c(-c2ccnc(NCCCN(C)C)n2)s1 [Example 163] |  |  | 1 to 10 | > 1 |  | > 1 | > 1 | 
COc1c(NS(=O)(=O)c2c(F)cccc2F)cccc1-c1nc(N2CCOCC2)sc1-c1ccnc(NCC(C)C)n1 [Example 47, 2,6-Difluoro-N-{2-(methyloxy)-3-[5-{2-[(2-methylpropyl)amino]-4-pyrimidinyl}-2-(4-morpholinyl)-1,3-thiazol-4-yl]phenyl}benzenesulfonamide] | 0.1 to 1 |  | 0.1 to 1 | 0.1 to 1 | < 0.1 | 0.1 to 1 |  | 0.00316 to 0.0316
CC(C)CNc1nccc(-c2sc(N3CCOCC3)nc2-c2cccc(NS(=O)(=O)c3cc(F)ccc3F)c2Cl)n1 [Example 22, N-{2-Chloro-3-[5-{2-[(2-methylpropyl)amino]-4-pyrimidinyl}-2-(4-morpholinyl)-1,3-thiazol-4-yl]phenyl}-2,5-difluorobenzenesulfonamide] | < 0.1 |  | < 0.1 | < 0.1 | < 0.1 | < 0.1 |  | 0.00316 to 0.0316
CC(=O)NCCNc1nccc(-c2sc(C(C)C)nc2-c2cccc(NS(=O)(=O)c3cc(F)ccc3F)c2F)n1 [Example 187] | < 0.1 | ≤ 0.00316 | 1 to 10 | < 0.1 | < 0.1 | < 0.1 |  | 
Nc1nccc(-c2sc(N3CCOCC3)nc2-c2cccc(NS(=O)(=O)C3CCCCC3)c2F)n1 [Example 48, N-{3-[5-(2-Amino-4-pyrimidinyl)-2-(4-morpholinyl)-1,3-thiazol-4-yl]-2-fluorophenyl}cyclohexanesulfonamide] | 0.1 to 1 | 0.0316 to 1 | 0.1 to 1 | 0.1 to 1 | 0.1 to 1 | 0.1 to 1 |  | 
Nc1nccc(-c2sc(C3CCCCC3)nc2-c2cccc(NS(=O)(=O)c3c(F)cccc3F)c2F)n1 [Example 104, N-{3-[5-(2-Amino-4-pyrimidinyl)-2-cyclohexyl-1,3-thiazol-4-yl]-2-fluorophenyl}-2,6-difluorobenzenesulfonamide] | < 0.1 | ≤ 0.00316 | < 0.1 | < 0.1 | < 0.1 | < 0.1 |  | 
CC(C)(O)CCc1nccc(-c2sc(C(C)(C)C)nc2-c2cccc(NS(=O)(=O)c3cc(F)ccc3F)c2F)n1 [Example 250, N-(3-{2-(1,1-dimethylethyl)-5-[2-(3-hydroxy-3-methylbutyl)-4-pyrimidinyl]-1,3-thiazol-4-yl}-2-fluorophenyl)-2,5-difluorobenzenesulfonamide] | 0.1 to 1 |  | < 0.1 |  |  |  |  | 0.00316 to 0.0316
CC(C)c1nc(-c2ccc(F)c(NS(=O)(=O)c3c(F)cccc3F)c2)c(-c2ccnc(NCCN3CCS(=O)(=O)CC3)n2)s1 [Example 175] | 0.1 to 1 | 0.0316 to 1 | 0.1 to 1 | 0.1 to 1 | < 0.1 | 0.1 to 1 |  | 
CC(C)(C)c1nc(-c2c(F)ccc(NS(=O)(=O)c3c(F)cccc3F)c2F)c(-c2ccnc(N)n2)s1 [Example 107, N-{3-[5-(2-amino-4-pyrimidinyl)-2-(1,1-dimethylethyl)-1,3-thiazol-4-yl]-2,4-difluorophenyl}-2,6-difluorobenzenesulfonamide] | < 0.1 | ≤ 0.00316 | < 0.1 | < 0.1 | < 0.1 | < 0.1 |  | 
CC(C)c1nc(-c2ccc(F)c(NS(=O)(=O)c3cc(F)ccc3F)c2)c(-c2ccnc(NC3CCN(C)CC3)n2)s1 [Example 123] | 1 to 10 | 0.0316 to 1 | 0.1 to 1 | > 1 | < 0.1 | 0.1 to 1 |  | 
CC(C)Nc1nccc(-c2sc(N3CCOCC3)nc2-c2cccc(NS(=O)(=O)c3c(F)cccc3F)c2F)n1 [Example 136] | 0.1 to 1 |  | 0.1 to 1 | 0.1 to 1 | < 0.1 | 0.1 to 1 |  | 0.00316 to 0.0316
CC(C)(C)c1nc(-c2cccc(NS(=O)(=O)c3c(F)cccc3F)c2F)c(-c2ccnc(CCS(C)(=O)=O)n2)s1 [Example 251, N-[3-(2-(1,1-dimethylethyl)-5-{2-[2-(methylsulfonyl)ethyl]-4-pyrimidinyl}-1,3-thiazol-4-yl)-2-fluorophenyl]-2,6-difluorobenzenesulfonamide] | < 0.1 |  | < 0.1 |  |  |  |  | 0.00316 to 0.0316
CC(C)(C)c1nc(-c2cccc(NS(=O)(=O)c3c(F)cccc3F)c2Cl)c(-c2ccnc(N)n2)s1 [Example 236, N-{3-[5-(2-amino-4-pyrimidinyl)-2-(1,1-dimethylethyl)-1,3-thiazol-4-yl]-2-chlorophenyl}-2,6-difluorobenzenesulfonamide] | < 0.1 | ≤ 0.00316 | < 0.1 |  |  |  |  | 
CC(C)(C)c1nc(-c2cccc(NS(=O)(=O)c3c(F)cccc3F)c2F)c(-c2ccnc(NCCCS(C)(=O)=O)n2)s1 [Example 12, N-{3-[2-(1,1-Dimethylethyl)-5-(2-{[3-(methylsulfonyl)propyl]amino}-4-pyrimidinyl)-1,3-thiazol-4-yl]-2-fluorophenyl}-2,6-difluorobenzenesulfonamide] | < 0.1 | ≤ 0.00316 | < 0.1 | < 0.1 | < 0.1 | < 0.1 |  | 
CC(C)c1nc(-c2ccc(F)c(NS(=O)(=O)c3c(F)cccc3F)c2)c(-c2ccnc(NCCC(F)(F)F)n2)s1 [Example 180] | 0.1 to 1 |  | 0.1 to 1 | 0.1 to 1 | < 0.1 | 0.1 to 1 |  | 0.00316 to 0.0316
COc1ccc(F)cc1S(=O)(=O)Nc1cccc(-c2nc(C(C)C)sc2-c2ccnc(NCCS(C)(=O)=O)n2)c1 [Example 149] | 0.1 to 1 | 0.0316 to 1 | 0.1 to 1 | 0.1 to 1 | < 0.1 | 0.1 to 1 |  | 
CS(=O)(=O)CCCNc1nccc(-c2sc(N3CCOCC3)nc2-c2cccc(NS(=O)(=O)c3c(F)cccc3F)c2F)n1 [Example 15, 2,6-Difluoro-N-{2-fluoro-3-[5-(2-{[3-(methylsulfonyl)propyl]amino}-4-pyrimidinyl)-2-(4-morpholinyl)-1,3-thiazol-4-yl]phenyl}benzenesulfonamide] | < 0.1 | ≤ 0.00316 | < 0.1 | < 0.1 | < 0.1 | < 0.1 |  | 
CC(C)c1nc(-c2ccc(F)c(NS(=O)(=O)c3ccc(F)cc3F)c2)c(-c2ccnc(NCCS(C)(=O)=O)n2)s1 [Example 29, 2,4-Difluoro-N-{2-fluoro-5-[2-(1-methylethyl)-5-(2-{[2-(methylsulfonyl)ethyl]amino}-4-pyrimidinyl)-1,3-thiazol-4-yl]phenyl}benzenesulfonamide] | 0.1 to 1 |  | 0.1 to 1 | 0.1 to 1 | < 0.1 | 0.1 to 1 |  | 0.00316 to 0.0316
C[C@@H]1CN(c2nc(-c3cccc(NS(=O)(=O)c4cc(F)ccc4F)c3F)c(-c3ccnc(N)n3)s2)C[C@H](C)O1 [Example 103, N-(3-{5-(2-Amino-4-pyrimidinyl)-2-[(2R,6S)-2,6-dimethyl-4-morpholinyl]-1,3-thiazol-4-yl}-2-fluorophenyl)-2,5-difluorobenzenesulfonamide] | < 0.1 | ≤ 0.00316 | < 0.1 | < 0.1 | < 0.1 | < 0.1 |  | 
COCCCNc1nccc(-c2sc(C(C)C)nc2-c2ccc(F)c(NS(=O)(=O)c3c(F)cccc3F)c2)n1 [Example 168] | 0.1 to 1 | 0.0316 to 1 | 0.1 to 1 | 0.1 to 1 |  | 0.1 to 1 |  | 
CNc1nccc(-c2sc(C(C)C)nc2-c2ccc(F)c(NS(=O)(=O)c3c(F)cccc3F)c2)n1 [Example 119] | 1 to 10 | 0.0316 to 1 |  | > 1 | 0.1 to 1 | > 1 |  | 
